From patent publication US20040157773A1, “Farnesyl protein transferase inhibitors for treating cachexia” (priority 2003, published 2004)

Legend:
[1] = Body weight loss (cachexia) in nude mice bearing subcutaneous A375.S2 tumors; assay type: in vivo; conditions: for reduction in weight loss: weight loss day 1 to day 23, corrected for tumor burden, vs vehicle
Text: (§1) A375.S2 human melanoma cells were purchased from the American Type Culture Collection (Rockville, Md.). Cells were maintained in Dulbecco's Modified Eagle's Medium supplemented with pyruvate, nonessential amino acids, 10% fetal calf serum and penicillin-streptomycin.
(§2) Female nu/nu immunodeficient nude mice (42 days old) were purchased from Charles River Laboratories (Wilmington, Mass.). Mice were housed five per cage in microisolator cages placed in laminar flow shelving to maintain sterility. All bedding, food, water and cages were autoclaved. Animals were handled within the sterile confines of a laminar flow cabinet. The mice were otherwise maintained under standard vivarium conditions.
Cells growing as monolayers in T150 tissue culture flasks were detached by trypsinization with 10 ml of 0.05% trypsin plus 0.53 mM EDTA per flask. Tumor cell suspensions were pooled and trypsin was inactivated by the addition of serum containing medium (10 ml per 40 ml of trypsin cell suspension). Cells were collected by centrifugation and resuspended in Hank's Balanced Salt Solution (HBSS) warmed to 37° C. A 1.0 ml portion of cell suspension was added to 20 ml of diluent and counted on a Coulter particle counter. The cell suspensions were recentrifuged and resuspended at a concentration of 1×10^6 cell per 0.10 ml of HBSS. Mice were inoculated with a single subcutaneous injection of 0.10 ml of tumor cell suspension in the inguinal region. Mice were housed five per cage with 15 mice assigned to each treatment group. Mice were tagged by ear punches to allow the monitoring of individual mice during the course of the study. Body weight and tumor size determined from caliper measurements were measured weekly. The caliper measurements of length and width were multiplied to obtain tumor areas. At the end of study, mice were sacrificed by CO2 asphyxiation. Three days after tumor inoculation, the five-day treatment with R115777 was initiated. R115777 was administered once daily by oral gavage in a 20% β-cyclodextrin vehicle as a volume of 0.10 ml of solution per 10 gm body weight. Control groups received the same dosage volume of the 20% β-cyclodextrin vehicle.
R115777 was prepared for oral administration by dissolving the compound first as a 2× concentrated stock in 40% hydroxypropyl β-cyclodextrin in 0.1 N HCl. R115777 was dissolved by stirring vigorously approximately 30 minutes followed by sonication for 10 min. The R115777 solutions were brought to a final concentration by diluting 1:1 with 0.1 N HCl. The final drug solutions were sterile filtered immediately and transferred to sterile tubes. Solutions were stored refrigerated and protected from light during the course of the study and sterility was maintained by opening solutions under sterile laminar flow conditions.
(§3) Analysis of variance, mean values for treatment groups and standard error of the mean for in vivo parameters were calculated using IMSL subroutines on a VAX computer. A value of p<0.05 was considered significant. Weight loss was calculated for each individual animal from day 1 to day 23. Mean body weight loss for each treatment group was calculated and used for statistical analyses.

[2] = tested on: A375.S2 human melanoma cells; assay: Tumor growth of subcutaneous A375.S2 xenografts in nude mice; assay type: in vivo; conditions: oral
Text: as §1, §2
Cells growing as monolayers in T150 tissue culture flasks were detached by trypsinization with 10 ml of 0.05% trypsin plus 0.53 mM EDTA per flask. […] A 1.0 ml portion of cell suspension was added to 20 ml of diluent and counted on a Coulter particle counter. […]
as §3, with “A value of p<0.05 was considered significant.” left out

In the case of Cn1cncc1C(N)(c1ccc(Cl)cc1)c1ccc2c(c1)c(-c1cccc(Cl)c1)cc(=O)n2C (single isomer, unassigned; (+)) [R115777, (+)-6-[amino(4-chlorophenyl)(1-methyl-1H-imidazol-5-yl)methyl]-4-(3-chlorophenyl)-1-methyl-2(1H)-quinolinone], the “reduction in weight loss” value ([1]; 50 mg/kg once daily oral gavage, A375.S2 tumor-bearing nude mice) is reported as 28%, the “reduction in weight loss” value ([1]; 100 mg/kg once daily oral gavage, A375.S2 tumor-bearing nude mice) is reported as 45% and the “reduction in weight loss” value ([1]; 200 mg/kg once daily oral gavage, A375.S2 tumor-bearing nude mice) is reported as 67%. The “body weight course (weight loss)” value ([1]; oral, 50-200 mg/kg, body weight over time from day 14 (FIG. 2), A375.S2 tumor-bearing nude mice) was “appeared to prevent or delay the weight loss in a dose-dependent fashion”, the “body weight loss, statistical result” value ([1]; oral, 50-200 mg/kg, individual weight loss day 1 to day 23 corrected for tumor burden (FIG. 3), p<0.05 significant) was “significant dose dependent reduction of body weight loss” and the “reduction of final tumor weight” value ([2]; highest tested dose, postmortem tumor weight (FIG. 5)) was 27%. For the same molecule, the “tumor growth from tumor area measurements” value ([2]; 50-200 mg/kg, biweekly tumor area measurements (FIG. 1)) was “minimal reduction in tumor growth”.
